Structures can show the parent of a compound that is named as a salt.
Experiments:
P-388 leukemia cells = assay: Antitumor activity: P-388 leukemia cells inoculated intraperitoneally, drug administered intravenously, BDF1 mice; assay type: in vivo; conditions: BDF1 mice, P-388 i.p.; for response vs control in vivo at 20 mg/kg: dose b: 20 mg/kg × 3, i.v. on days 1, 5 and 9; for response vs control in vivo at 80 mg/kg: dose f: 80 mg/kg × 3, i.v. on days 1, 5 and 9
In short: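 Drug dosing was intravenous on the first, fifth and ninth days after intraperitoneal inoculation of P-388 leukemia cells (1×10^6 per mouse) into BDF1 mice. Vehicles were physiological saline alone, or saline with small amounts of sodium carboxymethyl cellulose or Tween-80.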

[1] = Acute toxicity, intravenous (once), ddY mice; assay type: in vivo; conditions: mouse, in vivo, iv, formulated per Preparation Example
Description: In Table 7 are shown acute toxicity values (LD50, mg/kg) in ddY mice in the case of intravenously administering (once) each of the compounds of this invention in the form of preparations shown in the Preparation Examples shown in Table 7.

[2] = Mus musculus, P388, iv, read-out: T/C (%) of MST
[3] = Mus musculus, P388, iv, dose c: 40 mg/kg × 3, i.v. on days 1, 5 and 9, read-out: T/C (%) of MST

Structure (SMILES): CO[C@H]1[C@@H](O)[C@@H](C)O[C@H](O[C@H]2[C@H](Oc3cccc4c(OC(=O)[C@@H](NC(=O)CNC(=O)CN)C(C)C)c5c(=O)oc6ccc(C)c7c(=O)oc(c34)c5c67)O[C@H](C)[C@@H]3OC(c4ccccc4)O[C@@H]32)[C@@H]1O (stereo partly drawn) [compound 36, 6-O-(glycyl-glycyl-valyl)-3',4'-O-benzylidene-chartreusin phosphate]
- response vs control in vivo at 10 mg/kg (P-388 leukemia cells; Mus musculus, P388, iv, dose a: 10 mg/kg × 3, i.v. on days 1, 5 and 9, read-out: T/C (%) of MST): 135%
- response vs control in vivo at 20 mg/kg (P-388 leukemia cells; [2]): 157%
- LD50 [1]: ≥ 40 mg/kg

Structure (SMILES): COC1C(O)C(C)OC(OC2C(Oc3cccc4c(OC(=O)CCN)c5c(=O)oc6ccc(C)c7c(=O)oc(c34)c5c67)OC(C)C3OC(C)(C)OC32)C1O (stereo not drawn) [compound 42, 6-O-(β-alanyl)-3',4'-O-isopropylidene-chartreusin hydrochloride]
- response vs control in vivo at 80 mg/kg (P-388 leukemia cells; [2]): 187%
- LD50 [1]: ≥ 100 mg/kg

Structure (SMILES): COC1C(O)C(C)OC(OC2C(Oc3cccc4c(OC(=O)CCCCCN)c5c(=O)oc6ccc(C)c7c(=O)oc(c34)c5c67)OC(C)C3OC(C)(C)OC32)C1O (stereo not drawn) [compound 59]
- response vs control in vivo at 40 mg/kg (P-388 leukemia cells; [3]): 146%
- response vs control in vivo at 80 mg/kg (P-388 leukemia cells; [2]): 218%
- LD50 [1]: ≥ 100 mg/kg

Structure (SMILES): COC1C(O)C(C)OC(OC2C(Oc3cccc4c(OC(=O)C(CNC(=O)OCc5ccccc5)C(C)C)c5c(=O)oc6ccc(C)c7c(=O)oc(c34)c5c67)OC(C)C3OC(c4ccccc4)OC32)C1O (stereo not drawn) [compound 70]
- response vs control in vivo at 20 mg/kg (P-388 leukemia cells; [2]): 135%
- response vs control in vivo at 40 mg/kg (P-388 leukemia cells; [3]): 181%
- LD50 [1]: ≥ 40 mg/kg

Structure (SMILES): COC1C(O)C(C)OC(OC2C(Oc3cccc4c(OC(=O)CNC(=O)OCc5ccccc5)c5c(=O)oc6ccc(C)c7c(=O)oc(c34)c5c67)OC(C)C3OC(c4ccccc4)OC32)C1O (stereo not drawn) [compound 71]
- response vs control in vivo at 20 mg/kg (P-388 leukemia cells; [2]): 157%
- LD50 [1]: ≥ 40 mg/kg

Structure (SMILES): COC1C(O)C(C)OC(OC2C(Oc3cccc4c(OC(=O)CCNC(=O)OCc5ccccc5)c5c(=O)oc6ccc(C)c7c(=O)oc(c34)c5c67)OC(C)C3OC(c4ccccc4)OC32)C1O (stereo not drawn) [compound 72]
- response vs control in vivo at 20 mg/kg (P-388 leukemia cells; [2]): 167%
- LD50 [1]: ≥ 40 mg/kg

Structure (SMILES): COC1C(O)C(C)OC(OC2C(Oc3cccc4c(OC(=O)CCNC(=O)OCc5ccccc5)c5c(=O)oc6ccc(C)c7c(=O)oc(c34)c5c67)OC(C)C3OC(c4cccc(F)c4)OC32)C1O (stereo not drawn) [compound 73]
- response vs control in vivo at 20 mg/kg (P-388 leukemia cells; [2]): 176%
- response vs control in vivo at 40 mg/kg (P-388 leukemia cells; [3]): 229%
- LD50 [1]: ≥ 40 mg/kg

Structure (SMILES): COC1C(O)C(C)OC(OC2C(Oc3cccc4c(OC(=O)C(C)CNC(=O)CNC(=O)OCc5ccccc5)c5c(=O)oc6ccc(C)c7c(=O)oc(c34)c5c67)OC(C)C3OC(c4ccccc4)OC32)C1O (stereo not drawn) [compound 74]
- response vs control in vivo at 20 mg/kg (P-388 leukemia cells; [2]): 186%
- LD50 [1]: ≥ 40 mg/kg

Structure (SMILES): COC1C(O)C(C)OC(OC2C(Oc3cccc4c(OC(=O)CCNC(=O)CNC(=O)OCc5ccccc5)c5c(=O)oc6ccc(C)c7c(=O)oc(c34)c5c67)OC(C)C3OC(c4ccccc4)OC32)C1O (stereo not drawn) [compound 75]
- response vs control in vivo at 20 mg/kg (P-388 leukemia cells; [2]): 153%
- response vs control in vivo at 40 mg/kg (P-388 leukemia cells; [3]): 197%
- LD50 [1]: ≥ 40 mg/kg

Structure (SMILES): COC1C(O)C(C)OC(OC2C(Oc3cccc4c(OC(=O)CCCNC(=O)OCc5ccccc5)c5c(=O)oc6ccc(C)c7c(=O)oc(c34)c5c67)OC(C)C3OC(c4ccccc4)OC32)C1O (stereo not drawn) [compound 76]
- response vs control in vivo at 20 mg/kg (P-388 leukemia cells; [2]): 135%
- response vs control in vivo at 40 mg/kg (P-388 leukemia cells; [3]): 184%
- LD50 [1]: ≥ 40 mg/kg

Structure (SMILES): COC1C(O)C(C)OC(OC2C(Oc3cccc4c(OC(=O)CCCCCCCNC(=O)C(F)(F)F)c5c(=O)oc6ccc(C)c7c(=O)oc(c34)c5c67)OC(C)C3OC(c4ccccc4)OC32)C1O (stereo not drawn) [compound 77]
- response vs control in vivo at 20 mg/kg (P-388 leukemia cells; [2]): 135%
- response vs control in vivo at 40 mg/kg (P-388 leukemia cells; [3]): 186%
- LD50 [1]: ≥ 40 mg/kg

Structure (SMILES): COC1C(O)C(C)OC(OC2C(Oc3cccc4c(OC(=O)CCCCCNC(=O)C(F)(F)F)c5c(=O)oc6ccc(C)c7c(=O)oc(c34)c5c67)OC(C)C3OC(c4ccccc4)OC32)C1O (stereo not drawn) [compound 78, 6-O-(N-trifluoroacetyl-6-amino-n-hexanoyl)-3',4'-O-benzylidene-chartreusin]
- response vs control in vivo at 40 mg/kg (P-388 leukemia cells; [3]): 146%
- response vs control in vivo at 80 mg/kg (P-388 leukemia cells; [2]): 176%
- LD50 [1]: ≥ 100 mg/kg

Structure (SMILES): COC1C(O)C(C)OC(OC2C(Oc3cccc4c(OC(=O)CCNC=O)c5c(=O)oc6ccc(C)c7c(=O)oc(c34)c5c67)OC(C)C3OC(c4ccsc4)OC32)C1O (stereo not drawn) [compound 81]
- response vs control in vivo at 20 mg/kg (P-388 leukemia cells; [2]): 139%
- response vs control in vivo at 40 mg/kg (P-388 leukemia cells; [3]): 173%
- LD50 [1]: ≥ 40 mg/kg

Structure (SMILES): COC1C(O)C(C)OC(OC2C(Oc3cccc4c(OC(=O)CN(C)C(=O)C(F)(F)F)c5c(=O)oc6ccc(C)c7c(=O)oc(c34)c5c67)OC(C)C3OC(c4ccccc4F)OC32)C1O (stereo not drawn) [compound 82]
- response vs control in vivo at 40 mg/kg (P-388 leukemia cells; [3]): 148%
- response vs control in vivo at 80 mg/kg (P-388 leukemia cells; [2]): 205%
- LD50 [1]: ≥ 80 mg/kg

Structure (SMILES): COC1C(O)C(C)OC(OC2C(Oc3cccc4c(OC(=O)CCNC=O)c5c(=O)oc6ccc(C)c7c(=O)oc(c34)c5c67)OC(C)C3OC(CCc4ccccc4)OC32)C1O (stereo not drawn) [compound 83]
- response vs control in vivo at 40 mg/kg (P-388 leukemia cells; [3]): 144%
- response vs control in vivo at 80 mg/kg (P-388 leukemia cells; [2]): 208%
- LD50 [1]: ≥ 80 mg/kg

Structure (SMILES): COC1C(O)C(C)OC(OC2C(Oc3cccc4c(OC(=O)CCNC=O)c5c(=O)oc6ccc(C)c7c(=O)oc(c34)c5c67)OC(C)C3OC(c4ccco4)OC32)C1O (stereo not drawn) [compound 84]
- response vs control in vivo at 40 mg/kg (P-388 leukemia cells; [3]): 145%
- response vs control in vivo at 80 mg/kg (P-388 leukemia cells; [2]): 208%
- LD50 [1]: ≥ 80 mg/kg

Structure (SMILES): COC1C(O)C(C)OC(OC2C(Oc3cccc4c(OC(=O)C(C)CNC(=O)C(F)(F)F)c5c(=O)oc6ccc(C)c7c(=O)oc(c34)c5c67)OC(C)C3OC(C)(C)OC32)C1O (stereo not drawn) [compound 85]
- response vs control in vivo at 80 mg/kg (P-388 leukemia cells; [2]): 157%
- LD50 [1]: ≥ 100 mg/kg

Structure (SMILES): COC1C(O)C(C)OC(OC2C(Oc3cccc4c(OC(=O)CN(C)C(=O)C(F)(F)F)c5c(=O)oc6ccc(C)c7c(=O)oc(c34)c5c67)OC(C)C3OC(C)(C)OC32)C1O (stereo not drawn) [compound 86]
- response vs control in vivo at 80 mg/kg (P-388 leukemia cells; [2]): 136%
- LD50 [1]: ≥ 100 mg/kg

Structure (SMILES): COC1C(O)C(C)OC(OC2C(Oc3cccc4c(OC(=O)CNC(=O)c5ccccc5)c5c(=O)oc6ccc(C)c7c(=O)oc(c34)c5c67)OC(C)C3OC(C)(C)OC32)C1O (stereo not drawn) [compound 88]
- response vs control in vivo at 50 mg/kg (P-388 leukemia cells; Mus musculus, P388, iv, dose d: 50 mg/kg × 3, i.v. on days 1, 5 and 9, read-out: T/C (%) of MST): 157%
- LD50 [1]: ≥ 100 mg/kg

Structure (SMILES): COC1C(O)C(C)OC(OC2C(Oc3cccc4c(OC(=O)CCNC=O)c5c(=O)oc6ccc(C)c7c(=O)oc(c34)c5c67)OC(C)C3OC(c4cccc(Cl)c4)OC32)C1O (stereo not drawn) [compound 90]
- response vs control in vivo at 20 mg/kg (P-388 leukemia cells; [2]): 162%
- LD50 [1]: ≥ 30 mg/kg

Structure (SMILES): COC1C(O)C(C)OC(OC2C(Oc3cccc4c(OC(=O)CCCNC(=O)C(F)(F)F)c5c(=O)oc6ccc(C)c7c(=O)oc(c34)c5c67)OC(C)C3OC(c4ccc(F)cc4)OC32)C1O (stereo not drawn) [compound 91]
- T/C (%) of MST (P-388 leukemia cells; dose c: 40 mg/kg × 3, i.v. on days 1, 5 and 9): 173%
- LD50 [1]: ≥ 40 mg/kg

Structure (SMILES): COC1C(O)C(C)OC(OC2C(Oc3cccc4c(OC(=O)CCNC=O)c5c(=O)oc6ccc(C)c7c(=O)oc(c34)c5c67)OC(C)C3OC(c4ccc(F)cc4)OC32)C1O (stereo not drawn) [compound 92]
- response vs control in vivo at 20 mg/kg (P-388 leukemia cells; [2]): 146%
- response vs control in vivo at 40 mg/kg (P-388 leukemia cells; [3]): 192%
- LD50 [1]: ≥ 40 mg/kg

Structure (SMILES): COC1C(O)C(C)OC(OC2C(Oc3cccc4c(OC(=O)CCNC=O)c5c(=O)oc6ccc(C)c7c(=O)oc(c34)c5c67)OC(C)C3OC(c4ccc(Cl)cc4Cl)OC32)C1O (stereo not drawn) [compound 93]
- response vs control in vivo at 80 mg/kg (P-388 leukemia cells; [2]): 165%
- LD50 [1]: ≥ 80 mg/kg

Structure (SMILES): COC1C(O)C(C)OC(OC2C(Oc3cccc4c(OC(=O)CC(C)NC(=O)C(F)(F)F)c5c(=O)oc6ccc(C)c7c(=O)oc(c34)c5c67)OC(C)C3OC(c4ccccc4Cl)OC32)C1O (stereo not drawn) [compound 94]
- response vs control in vivo at 80 mg/kg (P-388 leukemia cells; [2]): 183%
- LD50 [1]: ≥ 80 mg/kg

Structure (SMILES): COc1ccc(C2OC3C(C)OC(Oc4cccc5c(OC(=O)CCNC=O)c6c(=O)oc7ccc(C)c8c(=O)oc(c45)c6c78)C(OC4OC(C)C(O)C(OC)C4O)C3O2)cc1 (stereo not drawn) [compound 95]
- response vs control in vivo at 40 mg/kg (P-388 leukemia cells; [3]): 173%
- LD50 [1]: ≥ 40 mg/kg

Structure (SMILES): COc1ccc(C2OC3C(C)OC(Oc4cccc5c(OC(=O)CCNC(=O)c6ccccc6)c6c(=O)oc7ccc(C)c8c(=O)oc(c45)c6c78)C(OC4OC(C)C(O)C(OC)C4O)C3O2)cc1 (stereo not drawn) [compound 96]
- response vs control in vivo at 40 mg/kg (P-388 leukemia cells; [3]): 162%
- LD50 [1]: ≥ 40 mg/kg

Structure (SMILES): COC1C(O)C(C)OC(OC2C(Oc3cccc4c(OC(=O)CCCCCNC(=O)C(F)(F)F)c5c(=O)oc6ccc(C)c7c(=O)oc(c34)c5c67)OC(C)C3OC(c4ccc(F)cc4)OC32)C1O (stereo not drawn) [compound 97]
- response vs control in vivo at 20 mg/kg (P-388 leukemia cells; [2]): 156%
- LD50 [1]: ≥ 30 mg/kg

Structure (SMILES): COC1C(O)C(C)OC(OC2C(Oc3cccc4c(OC(=O)CCCCCNC(=O)C(F)(F)F)c5c(=O)oc6ccc(C)c7c(=O)oc(c34)c5c67)OC(C)C3OC(C)(C)OC32)C1O (stereo not drawn) [compound 98]
- response vs control in vivo at 80 mg/kg (P-388 leukemia cells; [2]): 187%
- LD50 [1]: ≥ 100 mg/kg

Source: patent publication US4760136A, “Chartreusin derivatives and salts thereof” (Ishihara Sangyo Kaisha, Ltd., priority 1984, dated 1988)
